From article PMC5104426, “Screening a Phage Display Library for Two Novel OmpU-Binding Peptides with Adhesion Antagonistic Activity against Vibrio mimicus” (PLoS ONE, 2016)

Columns and labels:
[1] = tested on: rOmpU fusion protein adhesion to EPC cells; assay: Fluorescence-based adhesion assay: rOmpU protein adhesion to EPC cells; assay type: cell-based, Vibrio mimicus; conditions: 500 μg/mL peptide mixed with equal volume of 500 μg/mL rOmpU, 1 h 28°C, then 1 h on fixed EPC cells; anti-OmpU/FITC immunofluorescence; triplicate
Description: Synthetic OmpU-binding peptides were measure for their ability to antagonize OmpU protein adhesion to EPC cells by fluorescence-based adhesion assay. Briefly, EPC cells (1 × 10^6 cells/mL) were seeded in 24-well cell plate containing coverslip (Corning, NY, USA) and cultured to 80% confluence. The cells were gently washed 3 times with PBS and fixed with 4% paraformaldehyde at room temperature for 15 min. After 3 washes with PBS, cells were permeabilized with 0.5% Triton X-100 (500 μL/well) for 15 min. The cells were then washed 3 times with PBS and blocked with 2% BSA for 30 min. Subsequently, 500 μg/mL of each OmpU-binding peptide or irrelevant control peptide (used as negative control) solution were respectively mixed with an equal volume of 500 μg/mL rOmpU fusion protein, and the mixture was incubated for 1 h at 28°C and added to each well. The plates were incubated for 1 h at 28°C. After 3 washes, purified rabbit anti-OmpU antibody (prepared in our previous studies) at a dilution of 1:200 in PBS was added to each well and incubated for 1 h at 28°C, followed by 3 washes in PBS. A 1:100 dilution of FITC (fluorescein isothiocyanate)-labeled goat anti-rabbit IgG (Jackson ImmunoResearch Laboratories, Inc., USA) was added to each well and incubated in the dark for 1 h. After 3 washes in PBS, 4,6-Diamidino-2-phenylindole dihydrochloride (DAPI; Ziyi Reagent Co., Shanghai, China) was used to stain the nucleus, and the coverslips were observed under a fluorescence microscope. Each experiment was performed in triplicate, each sample being tested in three wells.

[2] = tested on: V. mimicus 04–14 isolate adhesion to EPC cells; assay: Peptide adhesion inhibition test: V. mimicus adhesion to EPC cells; assay type: cell-based, Vibrio mimicus; conditions: 500 μg/mL peptide mixed with equal volume of V. mimicus 04–14 (2 × 10^7 CFU/mL), 1 h 28°C, then 1 h on EPC cells, crystal violet, 30 cells counted, mean ± SD, triplicate
Description: When EPC cells grown in 24-well plate containing coverslips formed a confluent monolayer, the medium was changed to RPMI-1640 medium without serum and antibiotics for 2 h. Subsequently, 500 μg/mL of each OmpU-binding peptide or unrelated control peptide solution were respectively mixed with an equal volume of V. mimicus isolate 04–14 suspension (2 × 10^7 CFU/mL) and incubated for 1 h at 28°C. The mixture was added to each well, and then the plates were incubated for 1 h at 28°C. After 3 times washes, EPC cells were fixed with cooled methanol for 10 min, stained with crystal violet and examined under a light microscope at a magnification of ×1,000. Thirty cells were randomly selected to count the number of adhering bacterial per slide. Each experiment was performed in triplicate, with each sample being repeated in 3 cell wells.

TGYICDEMFCKL [P3] was tested, and the “green fluorescence on the surface of EPC cells (surface-retained rOmpU)” value [1] was “Obvious green fluorescence” and the “average number of adhesion around each cell” value [2] was 20.2 ± 0.5.
